In patent US20240116946A1 (Gilead Sciences, Inc., priority 2022, published 2024):
Read-outs that look alike come from different tables or passages of the source.

What was measured:
[1] = biological target: recombinant SARS-CoV-2 Main protease (Mpro) (Severe acute respiratory syndrome coronavirus 2 (2019-nCoV) (SARS-CoV-2), UniProt P0DTD1); assay: Cov Mpro Biochemical IC50 Assay; details: read-out: MPro IC50
SARS-CoV-2-NLuc = assay: microbe, parasite or virus in culture; type: cell-based, SARS Coronavirus 2
[2] = recombinant SARS-CoV-2 Mpro 7.5 nM, fluorogenic peptide substrate 40 μM
[3] = Severe acute respiratory syndrome coronavirus, 48 h, read-out: MPro EC50
[4] = recombinant SARS-CoV-2 Mpro, fluorogenic peptide substrate
[5] = Severe acute respiratory syndrome coronavirus, 48 h; read-out: MPro EC50

| Compound | IC50 [1, 2] | EC50 (SARS-CoV-2-NLuc; [3]) | IC50 [1, 4] | EC50 (SARS-CoV-2-NLuc; [5]) | EC50 (SARS-CoV-2-NLuc; read-out: MPro EC50) |
| --- | --- | --- | --- | --- | --- |
| COc1cc(-c2cc3c(s2)c(=O)n(-c2cncc4cnn(C)c24)c(=O)n3CCCC#N)c(Cl)cc1F [Example 658] | 14.4 nM | 22.8 nM |  |  |  |
| COc1ccc(C#N)c(-c2cc3c(cc2F)c(=O)n(-c2cncc4ccccc24)c(=O)n3CCC#N)c1 [Example 902] | 87.3 nM | 134 nM |  |  |  |
| COc1cnc(Cl)c(-c2cc3c(s2)c(=O)n(-c2cncc4cnn(C)c24)c(=O)n3CCC#N)c1 [Example 1019, 3-(6-(2-chloro-5-methoxypyridin-3-yl)-3-(1-methyl-1H-pyrazolo[4,3-c]pyridin-7-yl)-2,4-dioxo-3,4-dihydrothieno[3,2-d]pyrimidin-1(2H)-yl)propanenitrile] | 8.48 nM | 16.3 nM |  |  |  |
| COc1cc(-c2cc3[nH]c(=O)n(-c4cncc5sc(C(C)(C)O)c(C)c45)c(=O)c3s2)c(Cl)cc1F [Example 671] | 5.85 nM | 7.44 nM |  |  |  |
| O=c1[nH]c2cc(-c3c(Cl)cccc3OCc3ccnnc3)ccc2c(=O)n1-c1cncc2ccccc12 [Example 93] |  | 95 nM | 11.4 nM |  |  |
| COc1cc(-c2cc3c(s2)c(=O)n(-c2cncc(OC4CC4)c2)c(=O)n3CCC#N)c(Cl)cc1F [Example 953] | 8.28 nM | 36.3 nM |  |  |  |
| Cn1c(C(F)(F)F)nc2cncc(-n3c(=O)c4sc(-c5ccccc5C#N)cc4n(CCC#N)c3=O)c21 [Example 858] | 263 nM | 741 nM |  |  |  |
| CC1(C)Cc2c(-c3cccc(Cl)c3-c3cc4[nH]c(=O)n(-c5cncc6ccccc56)c(=O)c4s3)cnn2C1 [Example 524] | 7.83 nM | 5.95 nM |  |  |  |
| COc1ccc(C#N)c(-c2cc3[nH]c(=O)n(-c4cncc5cnn(CC(F)(F)F)c45)c(=O)c3s2)c1 [Example 508] | 21.2 nM | 205 nM |  |  |  |
| Cc1c(F)cncc1-n1c(=O)c2sc(-c3ccccc3C#N)cc2n(CCC#N)c1=O [Example 848] | 34.5 nM |  |  | 137 nM |  |
| COc1cc(-c2cc3[nH]c(=O)n(-c4cncc5cnn(C)c45)c(=O)c3s2)c(Cl)cc1F (single isomer, unassigned) [Example 639, 6-(2-chloro-4-fluoro-5-methoxy-phenyl)-3-(1-methylpyrazolo[4,3-c]pyridin-7-yl)-1H-thieno[3,2-d]pyrimidine-2,4-dione] | 114 nM |  |  |  | 173 nM |
| Cc1ccc2cncc(-n3c(=O)[nH]c4cc(-c5ccccc5Cl)ccc4c3=O)c2c1 [Example 109] |  | 423 nM | 265 nM |  |  |
| COc1cc(-c2cc3c(s2)c(=O)n(-c2cncc4nc(C5CCC5)n(C)c24)c(=O)n3CCC#N)c(Cl)cc1F [Example 755] | 33.3 nM | 243 nM |  |  |  |
| O=c1[nH]c2cc(-c3ccccc3Cl)sc2c(=O)n1-c1cncc2ccoc12 [Example 490] | 20.8 nM | 55.8 nM |  |  |  |
| Cc1cnnc(-n2c(=O)c3sc(-c4ccccc4C#N)cc3n(CCC#N)c2=O)c1 [Example 813] | 32.5 nM |  |  | 362 nM |  |
| O=c1[nH]c2cc(-c3ccccc3Cl)sc2c(=O)n1-c1cncc2ccccc12 (single isomer, unassigned) [Example 150, 6-(2-chlorophenyl)-3-(isoquinolin-4-yl)thieno[3,2-d]pyrimidine-2,4(1H,3H)-dione] |  |  | 73 nM |  | 124 nM |
| COc1cccc(Cl)c1-c1cnc2c(=O)n(-c3cncc4ccccc34)c(=O)[nH]c2c1 [Example 48] |  |  | 95.7 nM | 277 nM |  |
| O=c1[nH]c2cc(-c3cc(OC(F)(F)F)ccc3Cl)ccc2c(=O)n1-c1cncc2ccccc12 [Example 181] |  | 438 nM | 1220 nM |  |  |
| COc1cc(-c2ccc3c(=O)n(-c4cncc5ccccc45)c(=O)[nH]c3c2)c(Cl)cc1C [Example 250] |  | 460 nM | 1210 nM |  |  |
| Cn1cc(-c2cccc(Cl)c2-c2ccc3c(=O)n(-c4cncc5ccccc45)c(=O)[nH]c3c2)nn1 [Example 310] |  | 140 nM | 55.4 nM |  |  |
| COc1ccc(C#N)c(-c2ccc3c(=O)n(-c4cncc5ccc(N6CCOCC6)cc45)c(=O)[nH]c3c2)c1 [Example 431] | 10.5 nM | 71.3 nM |  |  |  |
| COc1cc(-c2cc3c(s2)c(=O)n(-c2cncc4ccccc24)c(=O)n3CC2(C#N)CC2)c(Cl)cc1F (single isomer, unassigned) [Example 635, 1-[[6-(2-chloro-4-fluoro-5-methoxy-phenyl)-3-(4-isoquinolyl)-2,4-dioxo-thieno[3,2-d]pyrimidin-1-yl]methyl]cyclopropanecarbonitrile] | 3.26 nM |  |  |  | 1.78 nM |
| COc1ccc(Cl)c(-c2cc3[nH]c(=O)n(-c4cncc5ccc(N6CCC(F)(F)C6)cc45)c(=O)c3s2)c1 [Example 414] | 7.63 nM | 20.1 nM |  |  |  |
| Cc1cccc(-c2ccccc2)c1-c1ccc2c(=O)n(-c3cncc4ccccc34)c(=O)[nH]c2c1 [Example 97] |  | 266 nM | 397 nM |  |  |
| O=c1[nH]c2cc(-c3c(Cl)cccc3-c3cnc4n3CCC4)sc2c(=O)n1-c1cncc2ccccc12 [Example 529] | 8.44 nM | 34.1 nM |  |  |  |

| Compound | IC50 [1, 2] | EC50 (SARS-CoV-2-NLuc; [3]) | IC50 [1, 4] | EC50 (SARS-CoV-2-NLuc; [5]) | EC50 (SARS-CoV-2-NLuc; read-out: MPro EC50) |
| --- | --- | --- | --- | --- | --- |
| COc1cc(-c2cc3[nH]c(=O)n(-c4cncc5ccccc45)c(=O)c3s2)c(Cl)cc1F (single isomer, unassigned) [Example 556, 6-(2-chloro-4-fluoro-5-methoxyphenyl)-3-(isoquinolin-4-yl)thieno[3,2-d]pyrimidine-2,4(1H,3H)-dione] | 3.41 nM |  |  |  | 2.04 nM |
| COc1cc(-c2cc3c(s2)c(=O)n(-c2cncc(OC(F)F)c2)c(=O)n3CCC#N)c(Cl)cc1F [Example 872] | 8.39 nM | 37.3 nM |  |  |  |
| N#Cc1cc(-c2cccc(Cl)c2-c2ccc3c(=O)n(-c4cncc5ccccc45)c(=O)[nH]c3c2)ccn1 [Example 328] |  | 45.9 nM | 15.4 nM |  |  |
| COc1ccc(C#N)c(-c2ccc3c(=O)n(-c4cncc5cccnc45)c(=O)[nH]c3c2)c1 [Example 218] |  |  | 20.9 nM | 82.8 nM |  |
| COCCn1ncc2cncc(-n3c(=O)[nH]c4cc(-c5cc(OC)c(F)cc5Cl)sc4c3=O)c21 [Example 733] | 15.2 nM | 25.8 nM |  |  |  |
| COc1cc(Cl)c(-c2cc3c(s2)c(=O)n(-c2cncc4cnn(C)c24)c(=O)n3CCC#N)cc1Cl [Example 791] | 6.98 nM | 9.04 nM |  |  |  |
| N#CCCn1c(=O)n(-c2cncc3ccccc23)c(=O)c2sc(-c3cc(Cl)ccc3C#N)cc21 [Example 821] | 6.75 nM | 11.5 nM |  |  |  |
| COc1ccc(C#N)c(-c2cc3[nH]c(=O)n(-c4cncc5cc(C(C)(C)O)sc45)c(=O)c3s2)c1 [Example 514] | 15.8 nM | 568 nM |  |  |  |
| COc1cc(-c2cc3[nH]c(=O)n(-c4cncc(Cl)c4Cl)c(=O)c3s2)c(Cl)cc1F [Example 742] | 15.2 nM | 26.2 nM |  |  |  |
| Cn1cnc2cncc(-n3c(=O)c4sc(-c5ccc(F)cc5Cl)cc4n(CCC#N)c3=O)c21 [Example 851] | 22.3 nM |  |  | 75.3 nM |  |
| O=c1[nH]c2cc(-c3ccccc3Cl)sc2c(=O)n1-c1cnnc2ccccc12 [Example 131] |  | 633 nM | 97 nM |  |  |
| O=c1[nH]c2cc(-c3ccccc3Cl)sc2c(=O)n1-c1cncc2ccc(N3CCO[C@H](C(F)(F)F)C3)cc12 [Example 417] | 17.8 nM | 160 nM |  |  |  |
| COc1ccc(C#N)c(-c2cc3[nH]c(=O)n(-c4cncc5cccc(F)c45)c(=O)c3s2)c1 [Example 446] | 8.74 nM | 25.5 nM |  |  |  |
| COc1cc(-c2cc3c(s2)c(=O)n(-c2cncc4cnn(C)c24)c(=O)n3CCC#N)c(Cl)cc1F (single isomer, unassigned) [Example 644, 3-[6-(2-chloro-4-fluoro-5-methoxy-phenyl)-3-(1-methylpyrazolo[4,3-c]pyridin-7-yl)-2,4-dioxo-thieno[3,2-d]pyrimidin-1-yl]propanenitrile] | 3.1 nM |  |  |  | 1.55 nM |
| COc1cc(-c2cc3c(s2)c(=O)n(-c2cncc4cnn(C)c24)c(=O)n3CCC#N)c(C#N)cc1F (single isomer, unassigned) [Example 1003, 2-[1-(2-cyanoethyl)-3-(1-methylpyrazolo[4,3-c]pyridin-7-yl)-2,4-dioxo-thieno[3,2-d]pyrimidin-6-yl]-5-fluoro-4-methoxy-benzonitrile] | 2.83 nM |  |  |  | 5.66 nM |
| O=c1[nH]c2cc(-c3c(Cl)cccc3-c3cnn4c3CCCC4)ccc2c(=O)n1-c1cncc2ccccc12 [Example 306] |  | 5.19 nM | 8.21 nM |  |  |
| Cc1nn(C2CCN(C(=O)OC(C)(C)C)CC2)cc1-c1cccc(Cl)c1-c1ccc2c(=O)n(-c3cncc4ccccc34)c(=O)[nH]c2c1 [Example 266, tert-butyl 4-[4-[3-chloro-2-[3-(4-isoquinolyl)-2,4-dioxo-1H-quinazolin-7-yl]phenyl]-3-methyl-pyrazol-1-yl]piperidine-1-carboxylate] |  | 95.1 nM | 36.4 nM |  |  |
| COCCn1cc2cncc(-n3c(=O)[nH]c4cc(-c5cc(OC)c(F)cc5Cl)sc4c3=O)c2n1 [Example 735] | 6.65 nM | 71 nM |  |  |  |
| COc1cc(-c2cc3[nH]c(=O)n(-c4cncc5cnn(C)c45)c(=O)c3cc2OC)c(C#N)cc1F [Example 765] | 13.9 nM | 94.2 nM |  |  |  |
| O=c1[nH]c2cc(-c3cccc(Cl)c3)ccc2c(=O)n1-c1cncc2ccccc12 [Example 56] |  | 3940 nM | 2750 nM |  |  |
| Cn1ncc2cncc(-n3c(=O)c4sc(C5C(Cl)=CC(Cl)=C6OCCC65)cc4n(CCC#N)c3=O)c21 (centres unmarked) [Example 1021] | 15.5 nM | 37.2 nM |  |  |  |
| O=c1[nH]c2cc(-c3c(Cl)cccc3-c3ccc4c(c3)OCCO4)ccc2c(=O)n1-c1cncc2ccccc12 [Example 358] |  | 113 nM | 177 nM |  |  |
| COc1ccc(Cl)c(-c2ccc3c(=O)n(-c4cncc5ccc(N6CCC(F)(F)C6)cc45)c(=O)[nH]c3c2)c1 [Example 407] | 79.7 nM | 184 nM |  |  |  |
| Cn1nnc2cncc(-n3c(=O)c4sc(-c5ccccc5Cl)cc4n(CCC#N)c3=O)c21 [Example 772] | 15.4 nM |  |  | 46.9 nM |  |
